Data published in ChEMBL document CHEMBL1155185, “Design, synthesis, screening, and molecular modeling study of a new series of ROS1 receptor tyrosine kinase inhibitors” (Bioorg Med Chem Lett, 2009).

Molecular target: Proto-oncogene tyrosine-protein kinase ROS (Homo sapiens) (UniProt P08922)
Assay: Inhibition of ROS1 at 20 uM by HotSpot assay

Chain of Proto-oncogene tyrosine-protein kinase ROS (Homo sapiens) (P08922 whole entry): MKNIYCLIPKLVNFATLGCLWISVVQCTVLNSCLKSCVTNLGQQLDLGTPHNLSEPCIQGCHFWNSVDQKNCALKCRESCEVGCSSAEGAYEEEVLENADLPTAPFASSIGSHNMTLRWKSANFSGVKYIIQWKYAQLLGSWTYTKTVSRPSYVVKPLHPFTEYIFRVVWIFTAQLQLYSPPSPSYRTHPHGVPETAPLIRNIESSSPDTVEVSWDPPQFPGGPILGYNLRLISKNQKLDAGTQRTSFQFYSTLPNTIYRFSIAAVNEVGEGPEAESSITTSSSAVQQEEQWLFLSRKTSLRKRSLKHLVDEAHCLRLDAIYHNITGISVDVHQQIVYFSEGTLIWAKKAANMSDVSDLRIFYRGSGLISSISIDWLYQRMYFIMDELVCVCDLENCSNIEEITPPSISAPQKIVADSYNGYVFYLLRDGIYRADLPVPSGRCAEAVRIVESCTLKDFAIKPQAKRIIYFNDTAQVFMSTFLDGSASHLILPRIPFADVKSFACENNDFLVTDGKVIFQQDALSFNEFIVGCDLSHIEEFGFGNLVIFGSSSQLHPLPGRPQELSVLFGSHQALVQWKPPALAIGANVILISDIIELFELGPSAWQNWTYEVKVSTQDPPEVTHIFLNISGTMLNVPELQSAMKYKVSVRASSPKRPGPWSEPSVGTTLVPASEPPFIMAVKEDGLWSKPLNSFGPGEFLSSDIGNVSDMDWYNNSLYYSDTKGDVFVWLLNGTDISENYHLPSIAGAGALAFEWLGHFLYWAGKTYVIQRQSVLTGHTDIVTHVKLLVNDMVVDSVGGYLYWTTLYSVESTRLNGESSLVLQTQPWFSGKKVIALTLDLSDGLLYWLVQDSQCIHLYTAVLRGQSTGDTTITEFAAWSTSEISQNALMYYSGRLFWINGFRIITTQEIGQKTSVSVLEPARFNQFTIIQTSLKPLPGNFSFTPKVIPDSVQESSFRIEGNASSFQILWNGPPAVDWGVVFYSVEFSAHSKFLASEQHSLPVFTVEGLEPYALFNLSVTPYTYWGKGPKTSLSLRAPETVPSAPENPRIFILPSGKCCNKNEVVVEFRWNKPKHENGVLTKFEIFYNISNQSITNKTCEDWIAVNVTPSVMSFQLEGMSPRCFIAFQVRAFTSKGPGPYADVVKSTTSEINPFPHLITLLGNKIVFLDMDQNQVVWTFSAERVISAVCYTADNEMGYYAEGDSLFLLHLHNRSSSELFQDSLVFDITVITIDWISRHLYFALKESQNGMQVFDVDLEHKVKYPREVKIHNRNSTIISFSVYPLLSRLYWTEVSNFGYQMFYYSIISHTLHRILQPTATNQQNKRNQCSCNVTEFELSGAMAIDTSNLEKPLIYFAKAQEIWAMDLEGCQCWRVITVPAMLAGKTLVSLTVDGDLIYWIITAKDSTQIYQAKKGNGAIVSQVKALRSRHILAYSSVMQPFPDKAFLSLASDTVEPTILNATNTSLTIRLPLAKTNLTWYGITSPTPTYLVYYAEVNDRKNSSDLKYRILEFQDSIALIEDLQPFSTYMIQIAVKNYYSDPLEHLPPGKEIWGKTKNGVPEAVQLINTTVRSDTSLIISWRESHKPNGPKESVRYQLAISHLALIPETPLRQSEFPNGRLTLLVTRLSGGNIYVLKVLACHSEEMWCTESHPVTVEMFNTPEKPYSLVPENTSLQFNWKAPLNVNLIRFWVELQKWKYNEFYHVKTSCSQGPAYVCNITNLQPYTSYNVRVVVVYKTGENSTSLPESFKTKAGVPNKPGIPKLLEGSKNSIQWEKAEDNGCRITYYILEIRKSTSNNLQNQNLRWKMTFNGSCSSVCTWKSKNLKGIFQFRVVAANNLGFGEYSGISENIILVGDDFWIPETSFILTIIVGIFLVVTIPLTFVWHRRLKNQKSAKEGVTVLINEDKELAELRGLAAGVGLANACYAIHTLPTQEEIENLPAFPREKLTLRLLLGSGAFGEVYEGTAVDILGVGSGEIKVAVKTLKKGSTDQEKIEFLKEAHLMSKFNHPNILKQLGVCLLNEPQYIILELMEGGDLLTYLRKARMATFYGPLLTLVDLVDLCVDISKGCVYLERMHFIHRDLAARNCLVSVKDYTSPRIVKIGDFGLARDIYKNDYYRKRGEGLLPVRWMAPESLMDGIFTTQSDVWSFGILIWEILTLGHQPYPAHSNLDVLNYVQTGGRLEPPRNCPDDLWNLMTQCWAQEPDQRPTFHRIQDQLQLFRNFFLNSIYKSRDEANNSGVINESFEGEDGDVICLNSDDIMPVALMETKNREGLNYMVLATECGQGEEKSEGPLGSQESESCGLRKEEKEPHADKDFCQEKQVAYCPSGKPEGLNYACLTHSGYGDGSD

Structure (SMILES)	inhibition
Cc1cc(O)cc(-c2nn(CC#N)cc2-c2ccnc(-c3ccccc3)c2)c1	< 30%
COc1cc(C)cc(-c2nn(CC#N)cc2-c2ccc(-c3ccccc3C(C)=O)nc2)c1	< 30%
Cc1cc(O)cc(-c2nn(CC#N)cc2-c2ccnc(-c3cccnc3)c2)c1	96%
CC(=O)c1ccccc1-c1cc(-c2cn(CC#N)nc2-c2cc(C)cc(O)c2)ccn1	< 30%
COc1cc(C)cc(-c2nn(CC#N)cc2-c2ccnc(-c3cccc(NC(C)=O)c3)c2)c1	< 30%
CC(=O)Nc1ccccc1-c1cc(-c2cn(CC#N)nc2-c2cc(C)cc(O)c2)ccn1	< 30%
CC(=O)c1cccc(-c2cc(-c3cn(CC#N)nc3-c3cc(C)cc(O)c3)ccn2)c1	< 30%
Cc1cc(O)cc(-c2nn(CC#N)cc2-c2ccnc(-c3ccc(C#N)cc3)c2)c1	< 30%
Cc1cc(O)cc(-c2nn(CC#N)cc2-c2ccnc(-c3ccc(Oc4ccccc4)cc3)c2)c1	< 30%
COc1cc(C)cc(-c2nn(CC#N)cc2-c2ccnc(-c3ccccc3C(C)=O)c2)c1	< 30%
COc1cc(C)cc(-c2nn(CC#N)cc2-c2ccnc(-c3ccc(Oc4ccccc4)cc3)c2)c1	< 30%
COc1cc(C)cc(-c2nn(CC#N)cc2-c2ccc(-c3cccc(C(C)=O)c3)nc2)c1	< 30%
CC(=O)Nc1cccc(-c2cc(-c3cn(CC#N)nc3-c3cc(C)cc(O)c3)ccn2)c1	< 30%
COc1cc(C)cc(-c2nn(CC#N)cc2-c2ccnc(-c3ccccc3NC(C)=O)c2)c1	< 30%
Cc1cc(O)cc(-c2nn(CC#N)cc2-c2ccc(-c3cccnc3)nc2)c1	< 30%
COc1cc(C)cc(-c2nn(CC#N)cc2-c2ccc(-c3cccnc3)nc2)c1	< 30%
CC(=O)c1cccc(-c2ccc(-c3cnn(CC#N)c3-c3cc(C)cc(O)c3)cn2)c1	< 30%
CC(=O)c1ccccc1-c1ccc(-c2cnn(CC#N)c2-c2cc(C)cc(O)c2)cn1	< 30%
CC(=O)c1ccc(-c2cc(-c3cn(CC#N)nc3-c3cc(C)cc(O)c3)ccn2)cc1	< 30%
CC(=O)c1ccccc1-c1ccc(-c2cn(CC#N)nc2-c2cc(C)cc(O)c2)cn1	< 30%
CC(=O)c1cccc(-c2ccc(-c3cn(CC#N)nc3-c3cc(C)cc(O)c3)cn2)c1	< 30%

Other lines, results leading:

inhibition	Structure (SMILES)
< 30%	CC(=O)Nc1ccccc1-c1cc(-c2cnn(CC#N)c2-c2cc(C)cc(O)c2)ccn1
< 30%	Cc1cc(O)cc(-c2nn(CC#N)cc2-c2ccnc(-c3ccc(N(C)C)cc3)c2)c1
< 30%	COc1cc(C)cc(-c2c(-c3ccnc(-c4ccc(N(C)C)cc4)c3)cnn2CC#N)c1
< 30%	COc1cc(C)cc(-c2nn(CC#N)cc2-c2ccnc(-c3ccc(C#N)cc3)c2)c1
< 30%	Cc1cc(O)cc(-c2c(-c3ccnc(-c4ccc(N(C)C)cc4)c3)cnn2CC#N)c1
< 30%	CC(=O)c1ccccc1-c1cc(-c2cnn(CC#N)c2-c2cc(C)cc(O)c2)ccn1
< 30%	COc1cc(C)cc(-c2c(-c3ccc(-c4cccnc4)nc3)cnn2CC#N)c1
< 30%	Cc1cc(O)cc(-c2c(-c3ccnc(-c4cccnc4)c3)cnn2CC#N)c1
< 30%	COc1cc(C)cc(-c2c(-c3ccnc(-c4cccnc4)c3)cnn2CC#N)c1
< 30%	COc1cc(C)cc(-c2c(-c3ccnc(-c4cccc(C(C)=O)c4)c3)cnn2CC#N)c1
< 30%	COc1cc(C)cc(-c2c(-c3ccnc(-c4ccc(C#N)cc4)c3)cnn2CC#N)c1
< 30%	COc1cc(C)cc(-c2c(-c3ccnc(-c4ccccc4NC(C)=O)c3)cnn2CC#N)c1
< 30%	COc1cc(C)cc(-c2c(-c3ccnc(-c4ccc(Oc5ccccc5)cc4)c3)cnn2CC#N)c1
< 30%	COc1cc(C)cc(-c2nn(CC#N)cc2-c2ccnc(-c3cccnc3)c2)c1
< 30%	COc1cc(C)cc(-c2nn(CC#N)cc2-c2ccnc(-c3cccc(C(C)=O)c3)c2)c1
< 30%	COc1cc(C)cc(-c2nn(CC#N)cc2-c2ccnc(-c3ccc(C(C)=O)cc3)c2)c1
< 30%	CC(=O)Nc1cccc(-c2cc(-c3cnn(CC#N)c3-c3cc(C)cc(O)c3)ccn2)c1
< 30%	Cc1cc(O)cc(-c2c(-c3ccnc(-c4ccc(Oc5ccccc5)cc4)c3)cnn2CC#N)c1
< 30%	COc1cc(C)cc(-c2c(-c3ccc(-c4ccccc4C(C)=O)nc3)cnn2CC#N)c1
< 30%	COc1cc(C)cc(-c2c(-c3ccnc(-c4ccccc4C(C)=O)c3)cnn2CC#N)c1
< 30%	COc1cc(C)cc(-c2c(-c3ccnc(-c4ccccc4)c3)cnn2CC#N)c1
< 30%	CC(=O)c1cccc(-c2cc(-c3cnn(CC#N)c3-c3cc(C)cc(O)c3)ccn2)c1
< 30%	Cc1cc(O)cc(-c2c(-c3ccnc(-c4ccccc4)c3)cnn2CC#N)c1
< 30%	COc1cc(C)cc(-c2nn(CC#N)cc2-c2ccnc(-c3ccccc3)c2)c1
< 30%	COc1cc(C)cc(-c2c(-c3ccc(-c4cccc(C(C)=O)c4)nc3)cnn2CC#N)c1
< 30%	COc1cc(C)cc(-c2nn(CC#N)cc2-c2ccnc(-c3ccc(N(C)C)cc3)c2)c1
< 30%	COc1cc(C)cc(-c2c(-c3ccnc(-c4cccc(NC(C)=O)c4)c3)cnn2CC#N)c1
< 30%	Cc1cc(O)cc(-c2c(-c3ccnc(-c4ccc(C#N)cc4)c3)cnn2CC#N)c1
< 30%	CC(=O)c1ccc(-c2cc(-c3cnn(CC#N)c3-c3cc(C)cc(O)c3)ccn2)cc1
< 30%	COc1cc(C)cc(-c2c(-c3ccnc(-c4ccc(C(C)=O)cc4)c3)cnn2CC#N)c1
